These results are taken from patent US20260159485A1, “ANDROGEN RECEPTOR DEGRADERS FOR THE TREATMENT OF CASTRATION-RESISTANT PROSTATE CANCER AND USE THEREOF” (AUTOTAC INC., priority 2021, published 2026).

The target in test [1] is T1, androgen receptor (Homo sapiens, UniProt P10275).
T1 construct: endogenous in cells
T1 sequence (P10275 1-920): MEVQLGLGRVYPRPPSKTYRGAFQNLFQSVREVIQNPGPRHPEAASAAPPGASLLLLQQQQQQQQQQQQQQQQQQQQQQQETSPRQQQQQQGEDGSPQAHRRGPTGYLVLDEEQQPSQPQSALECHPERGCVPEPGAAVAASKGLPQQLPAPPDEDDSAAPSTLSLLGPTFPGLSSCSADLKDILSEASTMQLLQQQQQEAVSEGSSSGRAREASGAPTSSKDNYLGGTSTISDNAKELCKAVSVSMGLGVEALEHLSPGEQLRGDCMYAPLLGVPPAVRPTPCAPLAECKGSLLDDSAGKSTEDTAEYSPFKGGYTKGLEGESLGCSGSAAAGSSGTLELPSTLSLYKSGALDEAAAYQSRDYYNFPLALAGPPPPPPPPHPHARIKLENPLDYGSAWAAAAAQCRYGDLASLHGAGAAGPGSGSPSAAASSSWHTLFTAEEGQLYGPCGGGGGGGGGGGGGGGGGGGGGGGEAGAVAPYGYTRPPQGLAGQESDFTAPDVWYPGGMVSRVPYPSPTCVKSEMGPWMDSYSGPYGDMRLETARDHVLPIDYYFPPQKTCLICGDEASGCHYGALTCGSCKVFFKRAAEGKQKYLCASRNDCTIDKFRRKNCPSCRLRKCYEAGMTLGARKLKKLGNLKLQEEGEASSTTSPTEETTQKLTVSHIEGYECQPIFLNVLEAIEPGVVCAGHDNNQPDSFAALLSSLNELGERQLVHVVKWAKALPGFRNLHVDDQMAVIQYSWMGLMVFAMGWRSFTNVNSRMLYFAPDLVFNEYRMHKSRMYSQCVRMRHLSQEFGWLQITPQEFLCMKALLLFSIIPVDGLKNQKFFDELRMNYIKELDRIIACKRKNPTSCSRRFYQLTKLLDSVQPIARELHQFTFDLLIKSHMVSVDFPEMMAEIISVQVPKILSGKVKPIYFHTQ
Nature of the test: Degradation of androgen receptor through autophagy. The test is classed as cell-based. The settings on record: FIG. 2a to 2c. Here is the method:
(§1) Hereinafter, experimental examples to show the effects of the disclosed compounds are described. Unless otherwise described, the following experiments were conducted with conventional materials and methos well known in the an for measuring a similar function.
Experimental Example 2. Anticancer Efficacy Via Degradation of Androgen Receptor

The test system of test [2] is androgen-responsive prostate cancer cell. Nature of the test: Colony formation of prostate cancer cell. The settings on record: FIG. 6. It counts as cell-based. Here is the method: as §1
(§2) Experimental Example 3. Compound B Inhibits Proliferation of Androgen-Responsive Prostate Cancer Cell

The test system of test [3] is AR-V7-expressing 22Rv1 xenograft. The test can be described thus: Tumor growth in AR-V7-expressing 22Rv1 xenograft model. It counts as in vivo. The settings on record: SCID mice, intraperitoneally 5 times per week, 20 mg/kg; FIG. 10. As to the method: 22Rv1 cells (4×10^6 cells/animal) were injected subcutaneously into 10-week-old male SCID mice to generate xenograft. The mice bearing tumor were randomly divided into vehicle or AUTOTAC treatment groups (4 or 5 mice per group), Compound B was injected via intraperitoneally 5 times per week at a dose of 20 mg/kg body weight, whereas the vehicle group received an equal volume of PBS containing 5% DMSO and 10% solutol. (FIG. 10)

A further test deals with AR target genes. The test can be described thus: Down-regulation of AR signaling pathway: expression of AR target genes. It counts as cell-based. The settings on record: FIG. 4. Here is the method: as §1
3. Down-Regulation of AR Signaling Pathway

Test [4] concerns androgen-responsive prostate cancer cell. The test can be described thus: Cell proliferation / cell cycle of prostate cancer cell. The settings on record: blocking the cell cycle in G1 phase; FIG. 7. It counts as cell-based. Here is the method:
as §1, §2

A further test deals with T2, wild type AR (Homo sapiens, UniProt P10275).
T2 construct: endogenous in cells
T2 sequence (P10275 1-920): T1 sequence (P10275 1-920)
The test can be described thus: Degradation of wild type AR in enzalutamide resistant cell. It counts as cell-based. The settings on record: FIG. 9a. From the text: (§3) Experimental Example 5. Xtandi-AUTOTAC Degrades AR Splice Variant 7, Predictive Biomarker of Metastatic Castration-Resistant Prostate Cancer Degradation of AR Variant (FIG. 9a to FIG. 9d)

The next test deals with LNCaP xenograft tumors. The test can be described thus: Growth of LNCaP xenograft tumors in mice. The settings on record: FIG. 8a to 8d. It counts as in vivo. From the text: Experimental Example 4. […] Inhibition of Tumor Growth
Test [5] concerns androgen-responsive and unresponsive cell. Nature of the test: Increase of the autophagy flux in androgen-responsive and unresponsive cell. The test is classed as cell-based. The settings on record: FIG. 1; for increase of autophagy at low concentration: 0.01 μM. Here is the method: as §1
Experimental Example 1. Increase of the Autophagy Flux in Androgen-Responsive and Unresponsive Cell by AR Inhibitors of the Present Invention

In test [6] the target is T1, androgen receptor. The test can be described thus: Inactivation of AR: transcriptional activity of androgen receptor. The test is classed as cell-based. The settings on record: by forming aggregation with p62 in the cytosol; FIG. 3. As to the method: as §1
Test [7] deals with AR splice variant 7 (AR-V7). Nature of the test: Degradation of AR splice variant 7 in enzalutamide resistant cell. The test is classed as cell-based.
Excerpt: as §3

The target in test [8] is T3, androgen receptor (Homo sapiens, UniProt P10275, T878A).
T3 construct: from tissue; host or cells: LNCaP xenograft tumour in mice
T3 sequence (P10275 whole entry T878A): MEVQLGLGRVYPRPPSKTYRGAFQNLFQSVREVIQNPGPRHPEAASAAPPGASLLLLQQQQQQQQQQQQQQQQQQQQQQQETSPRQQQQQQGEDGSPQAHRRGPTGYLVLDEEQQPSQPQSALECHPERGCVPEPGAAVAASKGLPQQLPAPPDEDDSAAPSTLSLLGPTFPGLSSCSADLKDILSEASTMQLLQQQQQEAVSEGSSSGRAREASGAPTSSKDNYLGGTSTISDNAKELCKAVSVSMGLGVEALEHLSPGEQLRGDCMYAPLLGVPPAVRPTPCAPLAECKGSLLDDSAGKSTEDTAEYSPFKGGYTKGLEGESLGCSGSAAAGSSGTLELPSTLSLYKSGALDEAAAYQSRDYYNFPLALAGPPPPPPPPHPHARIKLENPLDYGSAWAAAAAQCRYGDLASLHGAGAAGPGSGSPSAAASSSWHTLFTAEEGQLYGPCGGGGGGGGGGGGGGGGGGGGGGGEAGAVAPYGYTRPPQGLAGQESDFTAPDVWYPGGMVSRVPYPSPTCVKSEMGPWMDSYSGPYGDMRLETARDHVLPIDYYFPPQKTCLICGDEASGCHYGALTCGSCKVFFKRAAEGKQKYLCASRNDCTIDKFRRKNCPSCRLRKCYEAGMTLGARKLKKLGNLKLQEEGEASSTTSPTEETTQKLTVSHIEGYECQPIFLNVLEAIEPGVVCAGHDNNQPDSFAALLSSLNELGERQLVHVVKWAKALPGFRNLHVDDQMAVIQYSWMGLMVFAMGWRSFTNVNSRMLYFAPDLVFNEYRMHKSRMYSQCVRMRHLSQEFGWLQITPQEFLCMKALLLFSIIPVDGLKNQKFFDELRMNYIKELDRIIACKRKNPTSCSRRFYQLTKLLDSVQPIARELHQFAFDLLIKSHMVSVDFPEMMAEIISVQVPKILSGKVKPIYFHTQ
T3 sequence (Q13501 whole entry partner): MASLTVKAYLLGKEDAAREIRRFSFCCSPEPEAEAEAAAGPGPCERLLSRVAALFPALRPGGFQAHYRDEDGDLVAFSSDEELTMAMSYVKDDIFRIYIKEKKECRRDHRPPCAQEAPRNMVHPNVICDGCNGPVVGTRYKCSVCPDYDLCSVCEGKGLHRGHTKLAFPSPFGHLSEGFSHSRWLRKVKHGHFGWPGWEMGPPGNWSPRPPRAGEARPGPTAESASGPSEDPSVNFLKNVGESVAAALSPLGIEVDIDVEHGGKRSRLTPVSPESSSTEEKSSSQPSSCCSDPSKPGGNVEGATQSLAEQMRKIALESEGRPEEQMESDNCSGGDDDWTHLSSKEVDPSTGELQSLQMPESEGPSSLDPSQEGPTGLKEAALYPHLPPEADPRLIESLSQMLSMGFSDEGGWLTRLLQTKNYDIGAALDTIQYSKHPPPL
The test can be described thus: Degradation of androgen receptor in tumor of mice. It counts as in vivo. The settings on record: LNCaP xenograft tumor; FIG. 8e. From the text:
2. Degradation of Androgen Receptor

As for `CC1(C)C(=O)N(c2ccc(C#N)c(C(F)(F)F)c2)C(=S)N1c1ccc(C(=O)NCCCCCCOCCCCCNC[C@@H](O)COc2cccc(OCc3ccc(F)cc3)c2)c(F)c1` [Compound G, (R)-4-(3-(4-cyano-3-(trifluoromethyl)phenyl)-5,5-dimethyl-4-oxo-2-thioxoimidazolidin-1-yl)-2-fluoro-N-(6-((5-((3-(3-((4-fluorobenzyl)oxy)phenoxy)-2-hydroxypropyl)amino)pentyl)oxy)hexyl)benzamide], the “degradation of androgen receptor through autophagy” value on androgen receptor [1] is reported as “efficiently degrade androgen receptor”.

Take `O=C(COCCOCCOCCOCCNC[C@@H](O)COc1ccc(OCc2ccc(F)cc2)c(OCc2ccc(F)cc2)c1)N1CCN(c2nc(-n3cc(Br)nc3Br)cs2)CC1` [Compound E, (R)-18-(3,4-bis((4-fluorobenzyl)oxy)phenoxy)-1-(4-(4-(2,4-dibromo-1H-imidazol-1-yl)thiazol-2-yl)piperazin-1-yl)-17-hydroxy-3,6,9,12-tetraoxa-15-azaoctadecan-1-one]: the “degradation of androgen receptor through autophagy” value on androgen receptor [1] is “efficiently degrade androgen receptor”.

On to `CC1(C)C(=O)N(c2ccc(C#N)c(C(F)(F)F)c2)C(=S)N1c1ccc(C(=O)NCCOCCOCCOCCOCCNC[C@@H](O)COc2ccc(OCc3ccc(F)cc3)c(OCc3ccc(F)cc3)c2)c(F)c1` [Compound B, (R)—N-(18-(3,4-bis((4-fluorobenzyl)oxy)phenoxy)-17-hydroxy-3,6,9,12-tetraoxa-15-azaoctadecyl)-4-(3-(4-cyano-3-(trifluoromethyl)phenyl)-5,5-dimethyl-4-oxo-2-thioxoimidazolidin-1-yl)-2-fluorobenzamide], for which the “degradation of androgen receptor through autophagy” value at androgen receptor [1] is given as “efficiently degrade androgen receptor”. Further, in [2], the “colony formation of prostate cancer cell” value was “prevents colony formation”. In test [3], the “tumor growth in AR-V7-expressing 22Rv1 xenograft model” value is “Inhibits Tumor Growth”. Moreover, in the test on AR target genes, the “expression of AR target genes” value is on record as “down-regulates expression of AR target genes”. Moreover, in [4], the “cell proliferation / cell cycle” value is “inhibits cell proliferation by blocking the cell cycle in G1 phase”. The “degradation of wild type AR” value on wild type AR is “degrades”. The “tumor growth in Xenograft mouse model” value in the test on LNCaP xenograft tumors is recorded as “efficiently inhibits tumor growth”. The “increase of autophagy at low concentration” value in test [5] is “efficiently increase autophagy”. Moreover, in test [5] (1 h), the “increase of autophagy at early time point” value was “efficiently increases autophagy”. Moreover, the “transcriptional activity of androgen receptor” value on androgen receptor [6] is on record as “inhibits transcriptional activity of androgen receptor”. Also, the “degradation of AR-V7 by sequestering with wild type AR” value in test [7] (FIG. 9a to 9d) is “can degrade AR-V7 by sequestering with wild type AR”. The “degradation of AR-V7” value in test [7] (enzalutamide resistant cell, FIG. 9a) is on record as “degrades”. The “degradation of androgen receptor in tumor of mice” value at androgen receptor [8] was “degrades androgen receptor”.

As for `CC1(C)C(=O)N(c2ccc(C#N)c(C(F)(F)F)c2)C(=S)N1c1ccc(C(=O)NCCOCCOCCNC[C@@H](O)COc2ccc(OCc3ccc(F)cc3)c(OCc3ccc(F)cc3)c2)c(F)c1` [Compound A, (R)—N-(2-(2-(2-((3-(3,4-bis((4-fluorobenzyl)oxy)phenoxy)-2-hydroxypropyl)amino)ethoxy)ethoxy)ethyl)-4-(3-(4-cyano-3-(trifluoromethyl)phenyl)-5,5-dimethyl-4-oxo-2-thioxoimidazolidin-1-yl)-2-fluorobenzamide], the “degradation of androgen receptor through autophagy” value on androgen receptor [1] is “efficiently degrade androgen receptor”. Further, the “increase of autophagy at low concentration” value in test [5] is reported as “efficiently increase autophagy”.

Take `O[C@H](CNCCOCCOCCOCCOCCN1CCN(c2nc(-n3cc(Br)nc3Br)cs2)CC1)COc1ccc(OCc2ccc(F)cc2)c(OCc2ccc(F)cc2)c1` [Compound D, (R)-18-(3,4-bis((4-fluorobenzyl)oxy)phenoxy)-1-(4-(4-(2,4-dibromo-1H-imidazol-1-yl)thiazol-2-yl)piperazin-1-yl)-3,6,9,12-tetraoxa-15-azaoctadecan-17-ol]: the “degradation of androgen receptor through autophagy” value at androgen receptor [1] was “efficiently degrade androgen receptor”.

For `CC1(C)C(=O)N(c2ccc(C#N)c(C(F)(F)F)c2)C(=S)N1c1ccc(OCCOCCOCCOCCOCCOCCNCc2cccc(OCc3ccc(F)cc3)c2)cc1` [Compound I, 4-(3-(4-((1-(3-((4-fluorobenzyl)oxy)phenyl)-5,8,11,14,17-pentaoxa-2-azanonadecan-19-yl)oxy)phenyl)-4,4-dimethyl-5-oxo-2-thioxoimidazolidin-1-yl)-2-(trifluoromethyl)benzonitrile], at androgen receptor [1], the “degradation of androgen receptor through autophagy” value was “efficiently degrade androgen receptor”.

Consider `CC1(C)C(=O)N(c2ccc(C#N)c(C(F)(F)F)c2)C(=S)N1c1ccc(OCCCCCCCC(=O)NCCOCCOCCNCc2cccc(OCc3ccc(F)cc3)c2)cc1` [Compound H, 8-(4-(3-(4-cyano-3-(trifluoromethyl)phenyl)-5,5-dimethyl-4-oxo-2-thioxoimidazolidin-1-yl)phenoxy)-N-(2-(2-(2-((3-((4-fluorobenzyl)oxy)benzyl)amino)ethoxy)ethoxy)ethyl)octanamide], for which, at androgen receptor [1], the “degradation of androgen receptor through autophagy” value is on record as “efficiently degrade androgen receptor”.

For `CC1(C)C(=O)N(c2ccc(C#N)c(C(F)(F)F)c2)C(=S)N1c1ccc(C(=O)NCCOCCOCCOCCOCCOCCOCCNC[C@@H](O)COc2ccc(OCc3ccc(F)cc3)c(OCc3ccc(F)cc3)c2)c(F)c1` [Compound C, (R)-N-(24-(3,4-bis((4-fluorobenzyl)oxy)phenoxy)-23-hydroxy-3,6,9,12,15,18-hexaoxa-21-azatetracosyl)-4-(3-(4-cyano-3-(trifluoromethyl)phenyl)-5,5-dimethyl-4-oxo-2-thioxoimidazolidin-1-yl)-2-fluorobenzamide], the “degradation of androgen receptor through autophagy” value on androgen receptor [1] was “efficiently degrade androgen receptor”. Further, the “increase of autophagy at low concentration” value in [5] was “efficiently increase autophagy”.

Take `CC1(C)C(=O)N(c2ccc(C#N)c(C(F)(F)F)c2)C(=S)N1c1ccc(C(=O)NCCOCCOCCOCCOCCNC[C@@H](O)COc2cccc(OCc3ccc(F)cc3)c2)c(F)c1` [Compound F, (R)-4-(3-(4-cyano-3-(trifluoromethyl)phenyl)-5,5-dimethyl-4-oxo-2-thioxoimidazolidin-1-yl)-2-fluoro-N-(18-(3-((4-fluorobenzyl)oxy)phenoxy)-17-hydroxy-3,6,9,12-tetraoxa-15-azaoctadecyl)benzamide]: the “degradation of androgen receptor through autophagy” value at androgen receptor [1] was “efficiently degrade androgen receptor”.
